In article PMC12409580, “Modulating Receptor Activity, Immune Response, and Kinetic Solubility: The Impact of Linker Chemistry in Conjugated NOD2/TLR4 Agonists” (ACS Omega, 2025):
≈ marks a conversion by molar mass, not a printed value.

Key:
[1] = Kinetic solubility in PBS (HPLC solubility assay); conditions: aqueous buffer, kinetic from dmso stock
[2] = molecular target: NOD2 (Homo sapiens, UniProt Q9HC29); assay: NOD2 NF-κB SEAP reporter assay in HEK-Blue hNOD2 cells; conditions: for NOD2 activation at 10 μM, fold increase: 18 h, NF-κB transcriptional activity (SEAP) relative to 0.1% DMSO; for NOD2 agonist activity: compared with NOD2 agonist 3 and MDP (4 μM)
Sequence of NOD2 (Q9HC29 whole entry): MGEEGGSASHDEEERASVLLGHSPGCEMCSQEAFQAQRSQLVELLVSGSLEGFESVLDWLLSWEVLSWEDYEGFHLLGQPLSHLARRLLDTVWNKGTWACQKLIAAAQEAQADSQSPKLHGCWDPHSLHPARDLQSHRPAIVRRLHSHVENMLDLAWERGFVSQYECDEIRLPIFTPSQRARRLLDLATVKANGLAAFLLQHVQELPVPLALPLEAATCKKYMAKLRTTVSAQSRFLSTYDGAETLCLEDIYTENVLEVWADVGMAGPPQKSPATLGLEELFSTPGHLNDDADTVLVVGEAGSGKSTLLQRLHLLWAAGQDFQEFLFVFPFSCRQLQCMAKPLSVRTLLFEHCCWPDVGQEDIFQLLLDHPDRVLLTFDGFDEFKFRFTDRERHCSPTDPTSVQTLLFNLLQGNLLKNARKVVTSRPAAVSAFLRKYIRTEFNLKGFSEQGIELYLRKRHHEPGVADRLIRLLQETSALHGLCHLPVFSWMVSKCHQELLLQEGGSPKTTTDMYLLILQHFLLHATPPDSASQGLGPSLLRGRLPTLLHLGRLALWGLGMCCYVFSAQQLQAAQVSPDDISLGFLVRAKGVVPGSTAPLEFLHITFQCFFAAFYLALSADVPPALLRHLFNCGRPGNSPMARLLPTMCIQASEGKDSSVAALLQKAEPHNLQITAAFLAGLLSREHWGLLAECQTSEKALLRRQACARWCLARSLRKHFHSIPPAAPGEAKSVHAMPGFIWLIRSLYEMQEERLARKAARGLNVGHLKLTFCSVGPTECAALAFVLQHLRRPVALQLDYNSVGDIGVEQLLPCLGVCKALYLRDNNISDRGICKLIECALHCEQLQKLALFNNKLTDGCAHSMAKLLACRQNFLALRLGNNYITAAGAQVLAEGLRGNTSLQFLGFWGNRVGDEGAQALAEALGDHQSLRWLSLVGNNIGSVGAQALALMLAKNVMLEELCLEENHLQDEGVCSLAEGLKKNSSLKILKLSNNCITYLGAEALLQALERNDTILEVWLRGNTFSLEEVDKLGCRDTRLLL

[3] = molecular target: TLR4 (Homo sapiens, UniProt O00206+Q9Y6Y9); assay: TLR4 NF-κB SEAP reporter assay in HEK-Blue hTLR4 cells; conditions: for TLR4 activation at 10 μM, fold increase / TLR4 activation at 100 μM, fold increase: 18 h, NF-κB transcriptional activity (SEAP) relative to 0.1% DMSO; for concentration at which compound activated TLR4: dose-response 0.5–10 μM (17–21) or 1–100 μM (27–31); for maximum TLR4 activation: HEK-Blue hTLR4, 21 at 10 μM
Sequence of TLR4 (O00206 24-839): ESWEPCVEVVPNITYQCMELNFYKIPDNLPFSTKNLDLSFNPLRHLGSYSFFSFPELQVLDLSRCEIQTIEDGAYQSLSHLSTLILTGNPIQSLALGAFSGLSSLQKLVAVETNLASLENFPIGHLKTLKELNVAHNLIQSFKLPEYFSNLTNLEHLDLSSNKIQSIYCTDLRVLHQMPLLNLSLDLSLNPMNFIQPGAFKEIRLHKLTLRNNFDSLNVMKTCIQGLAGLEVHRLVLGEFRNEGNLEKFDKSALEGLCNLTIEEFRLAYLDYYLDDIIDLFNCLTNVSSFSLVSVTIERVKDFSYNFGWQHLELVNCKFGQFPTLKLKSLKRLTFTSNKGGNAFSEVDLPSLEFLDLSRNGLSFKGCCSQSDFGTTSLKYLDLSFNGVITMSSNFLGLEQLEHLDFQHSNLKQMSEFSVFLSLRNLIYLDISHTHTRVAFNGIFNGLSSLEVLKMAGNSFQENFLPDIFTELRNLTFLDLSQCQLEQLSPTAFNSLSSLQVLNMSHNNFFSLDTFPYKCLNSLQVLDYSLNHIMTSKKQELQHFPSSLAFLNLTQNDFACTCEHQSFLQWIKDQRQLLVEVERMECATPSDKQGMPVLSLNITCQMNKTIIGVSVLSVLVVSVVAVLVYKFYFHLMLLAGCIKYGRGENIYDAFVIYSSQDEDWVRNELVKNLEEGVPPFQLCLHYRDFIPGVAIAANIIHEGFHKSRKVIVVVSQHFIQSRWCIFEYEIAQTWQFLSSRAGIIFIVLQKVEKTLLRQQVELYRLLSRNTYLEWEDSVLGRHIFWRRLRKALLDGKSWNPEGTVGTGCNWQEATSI
Sequence of TLR4 (Q9Y6Y9 17-160 limits assumed): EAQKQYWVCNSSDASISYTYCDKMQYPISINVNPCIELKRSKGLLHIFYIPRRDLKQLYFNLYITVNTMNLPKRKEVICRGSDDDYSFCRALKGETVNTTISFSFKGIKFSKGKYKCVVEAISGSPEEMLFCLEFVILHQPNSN

[4] = Average solubility, Tables S1–S3, average of two samples
[5] = Solubility sample 1, Tables S1–S3, replicate 1
[6] = Solubility sample 2, Tables S1–S3, replicate 2
[7] = solubility in PBS, kinetic solubility, HPLC solubility assay
[8] = PBS, Solubility sample 1, Tables S1–S3, replicate 1
[9] = PBS, Solubility sample 2, Tables S1–S3, replicate 2
[10] = PBS, solubility in PBS, kinetic solubility, HPLC solubility assay
[11] = PBS, Average solubility, Tables S1–S3, average of two samples

solubility [1, 11] [µM]	maximum TLR4 activation [3] [fold]	Compound	solubility [1, 4] [µM]	solubility [1, 5] [µM]	solubility [1, 6] [µM]	solubility [1, 7] [µM]	NOD2 activation at 10 μM, fold increase [2] [fold increase]	TLR4 activation at 10 μM, fold increase ([3]; 10 μM) [fold increase]	TLR4 activation at 100 μM, fold increase [3] [fold increase]	solubility [1, 8] [µM]	solubility [1, 9] [µM]	solubility [1, 10] [µM]	NOD2 agonist activity [2]	concentration at which compound activated TLR4 [3] [µM]	TLR4 agonism ([3]; 10 μM)
–	–	CCOC(=O)[C@H](CCC(=O)NCCOCCOCCNC(=O)CSc1nc2c([nH]c3ccccc32)c(=O)n1-c1ccccc1)NC(=O)[C@H](NC(=O)CNC(=O)/C=C/c1ccc(O)c(OC)c1)C(C)C [Compound 29, Ethyl (S)-16-((R)-2-(2-((E)-3-(4-Hydroxy-3-methoxyphenyl)acrylamido)acetamido)-3-methylbutanamido)-2,13-dioxo-1-((4-oxo-3-phenyl-4,5-dihydro-3H-pyrimido[5,4-b]indol-2-yl)thio)-6,9-dioxa-3,12-diazaheptadecan-17-oate]	238 (≈ 231 µg/mL)	232 (≈ 225 µg/mL)	244 (≈ 237 µg/mL)	238 (≈ 231 µg/mL)	1.60	1.00	1.43	–	–	–	–	–	–
–	–	CCOC(=O)[C@H](CCC(=O)NCCNC(=O)Cc1ccc(C(C(=O)NC2CCCC2)N(C(=O)c2cc(-c3ccccc3)n(-c3ccccc3)n2)c2ccc3c(c2)CCC3)cc1)NC(=O)[C@@H](NC(=O)CNC(=O)/C=C/c1ccc(O)c(OC)c1)C(C)C (stereo partly drawn) [Compound 17, Ethyl N ^5-(2-(2-(4-(2-(Cyclopentylamino)-1-(N-(2,3-dihydro-1H-inden-5-yl)-1,5-diphenyl-1H-pyrazole-3-carboxamido)-2-oxoethyl)phenyl)acetamido)ethyl)-N ^2-((E)-3-(4-hydroxy-3-methoxyphenyl)acryloyl)glycyl-L-valyl-D-glutaminate]	–	–	–	–	3.66	5.10	–	0.68 (≈ 0.796 µg/mL)	0.83 (≈ 0.971 µg/mL)	0.76 (≈ 0.889 µg/mL)	comparable efficiency to MDP	1.0	–
–	–	CCOC(=O)[C@H](CCC(=O)NCCCCCCNC(=O)Cc1ccc(C(C(=O)NC2CCCC2)N(C(=O)c2cc(-c3ccccc3)n(-c3ccccc3)n2)c2ccc3c(c2)CCC3)cc1)NC(=O)[C@@H](NC(=O)CNC(=O)/C=C/c1ccc(O)c(OC)c1)C(C)C (stereo partly drawn) [Compound 18, Ethyl N ^5-(6-(2-(4-(2-(Cyclopentylamino)-1-(N-(2,3-dihydro-1H-inden-5-yl)-1,5-diphenyl-1H-pyrazole-3-carboxamido)-2-oxoethyl)phenyl)acetamido)hexyl)-N ^2-((E)-3-(4-hydroxy-3-methoxyphenyl)acryloyl)glycyl-L-valyl-D-glutaminate]	–	–	–	–	2.43	1.46	–	0.85 (≈ 1.04 µg/mL)	1.17 (≈ 1.43 µg/mL)	1.01 (≈ 1.24 µg/mL)	–	–	weak TLR4 agonism
–	–	CCOC(=O)[C@H](CCC(=O)NCCNC(=O)CSc1nc2c([nH]c3ccccc32)c(=O)n1-c1ccccc1)NC(=O)[C@H](NC(=O)CNC(=O)/C=C/c1ccc(O)c(OC)c1)C(C)C [Compound 27, Ethyl N ^2-((E)-3-(4-Hydroxy-3-methoxyphenyl)acryloyl)glycyl-D-valyl-N ^5-(2-(2-((4-oxo-3-phenyl-4,5-dihydro-3H-pyrimido[5,4-b]indol-2-yl)thio)acetamido)ethyl)-L-glutaminate]	310 (≈ 274 µg/mL)	322 (≈ 284 µg/mL)	298 (≈ 264 µg/mL)	310 (≈ 274 µg/mL)	2.17	1.06	2.60	–	–	–	–	–	–
254 (≈ 89.3 µg/mL)	3.10	O=C(O)CSc1nc2c([nH]c3ccccc32)c(=O)n1-c1ccccc1 [Compound 6, reference compound]	–	–	–	–	–	1.22	3.10	270 (≈ 94.8 µg/mL)	238 (≈ 83.7 µg/mL)	254 (≈ 89.3 µg/mL)	–	–	–
238 (≈ 152 µg/mL)	7.23	O=C(O)Cc1ccc(C(C(=O)NC2CCCC2)N(C(=O)c2cc(-c3ccccc3)n(-c3ccccc3)n2)c2ccc3c(c2)CCC3)cc1 (stereo not shown) [Compound 4, reference compound]	–	–	–	–	–	7.23	–	249 (≈ 159 µg/mL)	226 (≈ 145 µg/mL)	238 (≈ 152 µg/mL)	–	–	–
–	–	CCOC(=O)[C@H](CCC(=O)N1CCC(CN2CCN(C(=O)CSc3nc4c([nH]c5ccccc54)c(=O)n3-c3ccccc3)CC2)CC1)NC(=O)[C@H](NC(=O)CNC(=O)/C=C/c1ccc(O)c(OC)c1)C(C)C [Compound 31, Ethyl (S)-2-((R)-2-(2-((E)-3-(4-Hydroxy-3-methoxyphenyl)acrylamido)acetamido)-3-methylbutanamido)-5-oxo-5-(4-((4-(2-((4-oxo-3-phenyl-4,5-dihydro-3H-pyrimido[5,4-b]indol-2-yl)thio)acetyl)piperazin-1-yl)methyl)piperidin-1-yl)pentanoate]	–	7.22 (≈ 7.26 µg/mL)	6.15 (≈ 6.19 µg/mL)	6.68 (≈ 6.72 µg/mL)	3.33	1.05	2.26	–	–	–	–	–	–
–	–	CCOC(=O)[C@H](CCC(=O)NCCOCCOCCNC(=O)Cc1ccc(C(C(=O)NC2CCCC2)N(C(=O)c2cc(-c3ccccc3)n(-c3ccccc3)n2)c2ccc3c(c2)CCC3)cc1)NC(=O)[C@H](NC(=O)CNC(=O)/C=C/c1ccc(O)c(OC)c1)C(C)C (stereo partly drawn) [Compound 19, Ethyl (16S)-1-(4-(2-(Cyclopentylamino)-1-(N-(2,3-dihydro-1H-inden-5-yl)-1,5-diphenyl-1H-pyrazole-3-carboxamido)-2-oxoethyl)phenyl)-16-((R)-2-(2-((E)-3-(4-hydroxy-3-methoxyphenyl)acrylamido)acetamido)-3-methylbutanamido)-2,13-dioxo-6,9-dioxa-3,12-diazaheptadecan-17-oate]	–	–	–	–	3.06	2.78	–	2.59 (≈ 3.26 µg/mL)	1.68 (≈ 2.11 µg/mL)	2.14 (≈ 2.69 µg/mL)	–	5	–
–	–	CCOC(=O)[C@@H](CCC(=O)NCCCOCCOCCOCCCNC(=O)Cc1ccc(C(C(=O)NC2CCCC2)N(C(=O)c2cc(-c3ccccc3)n(-c3ccccc3)n2)c2ccc3c(c2)CCC3)cc1)NC(=O)[C@@H](NC(=O)CNC(=O)/C=C/c1ccc(O)c(OC)c1)C(C)C (stereo partly drawn) [Compound 20, Ethyl (21R)-1-(4-(2-(Cyclopentylamino)-1-(N-(2,3-dihydro-1H-inden-5-yl)-1,5-diphenyl-1H-pyrazole-3-carboxamido)-2-oxoethyl)phenyl)-21-((S)-2-(2-((E)-3-(4-hydroxy-3-methoxyphenyl)acrylamido)acetamido)-3-methylbutanamido)-2,18-dioxo-7,10,13-trioxa-3,17-diazadocosan-22-oate]	–	–	–	–	3.53	2.68	–	1.61 (≈ 2.14 µg/mL)	1.38 (≈ 1.84 µg/mL)	1.5 (≈ 2 µg/mL)	comparable efficiency to MDP	5	–
–	–	CCOC(=O)[C@@H](CCC(=O)NCCCOCCOCCOCCCNC(=O)CSc1nc2c([nH]c3ccccc32)c(=O)n1-c1ccccc1)NC(=O)[C@@H](NC(=O)CNC(=O)/C=C/c1ccc(O)c(OC)c1)C(C)C [Compound 30, Ethyl (R)-21-((S)-2-(2-((E)-3-(4-Hydroxy-3-methoxyphenyl)acrylamido)acetamido)-3-methylbutanamido)-2,18-dioxo-1-((4-oxo-3-phenyl-4,5-dihydro-3H-pyrimido[5,4-b]indol-2-yl)thio)-7,10,13-trioxa-3,17-diazadocosan-22-oate]	122 (≈ 128 µg/mL)	124 (≈ 129 µg/mL)	121 (≈ 126 µg/mL)	122 (≈ 128 µg/mL)	1.55	1.05	1.36	–	–	–	–	–	–
–	–	CCOC(=O)[C@H](CCC(=O)NCCCCCCNC(=O)CSc1nc2c([nH]c3ccccc32)c(=O)n1-c1ccccc1)NC(=O)[C@H](NC(=O)CNC(=O)/C=C/c1ccc(O)c(OC)c1)C(C)C [Compound 28, Ethyl N ^2-((E)-3-(4-Hydroxy-3-methoxyphenyl)acryloyl)glycyl-D-valyl-N ^5-(6-(2-((4-oxo-3-phenyl-4,5-dihydro-3H-pyrimido[5,4-b]indol-2-yl)thio)acetamido)hexyl)-L-glutaminate]	80 (≈ 75.1 µg/mL)	115 (≈ 108 µg/mL)	80.7 (≈ 75.8 µg/mL)	80 (≈ 75.1 µg/mL)	1.65	1.06	1.72	–	–	–	–	–	–
